Experimental data as given in ChEMBL document CHEMBL1155755, “Microbial transformation of pyrethrosin” (J Nat Prod, 2001).
Values after ≈ are worked out from the molar mass of the structure shown.

What was measured:
SK-OV-3 = experiment: Cytotoxicity against human SKOV3 cells; format: functional, cell-based
KB = experiment: Cytotoxicity against human KB cells; format: functional, cell-based
Plasmodium falciparum [1] = experiment: Antiplasmodial activity against Plasmodium falciparum D6; format: functional, organism-based
Cryptococcus neoformans = experiment: Antifungal activity against Cryptococcus neoformans; format: functional, organism-based
Plasmodium falciparum [2] = experiment: Antiplasmodial activity against chloroquine-resistant Plasmodium falciparum W2; format: functional, organism-based
SK-MEL = experiment: Cytotoxicity against human SK-MEL cells; format: functional, cell-based
Candida albicans = experiment: Antifungal activity against Candida albicans; format: functional, organism-based

Compound | IC50 (Plasmodium falciparum [1]) | IC50 (Cryptococcus neoformans) | IC50 (SK-MEL) | IC50 (Candida albicans) | other results
C=C1CC[C@@H](O)[C@]2(C)C[C@@H]3OC(=O)[C@H](C)[C@H]3[C@H](OC(C)=O)[C@@H]12 | – | – | – | – | IC50 (SK-OV-3): 8 µg/mL (≈ 25.9 µM); IC50 (KB): 1.1 µg/mL (≈ 3.57 µM)
CC(=O)O[C@H]1[C@H]2[C@H](C[C@]3(C)[C@@H]1[C@](C)(O)CC[C@H]3OC(C)=O)OC(=O)[C@@H]2C | 0.32 µg/mL (≈ 0.869 µM) | 25 µg/mL (≈ 67.9 µM) | – | – | IC50 (Plasmodium falciparum [2]): 0.38 µg/mL (≈ 1.03 µM)
C=C1CC[C@@H](O)[C@]2(C)C[C@@H]3OC(=O)[C@H](C)[C@H]3[C@H](O)[C@@H]12 | – | 35 µg/mL (≈ 131 µM) | – | – | –
CC1=CC[C@@H](O)[C@]2(C)C[C@@H]3OC(=O)[C@H](C)[C@H]3[C@H](O)[C@@H]12 | – | – | 7.5 µg/mL (≈ 28.2 µM) | – | –
CC(=O)O[C@H]1[C@H]2[C@H](C[C@@]3(C)[C@H](O)CC[C@@](C)(O)[C@H]13)OC(=O)[C@@H]2C | 0.88 µg/mL (≈ 2.7 µM) | – | – | 10 µg/mL (≈ 30.6 µM) | –
C=C1C(=O)O[C@H]2C[C@@]3(C)O[C@@H]3CC/C(C)=C/[C@@H](OC(C)=O)[C@H]12 [PYRETHROSIN] | – | – | 4.2 µg/mL (≈ 13.7 µM) | 30 µg/mL (≈ 97.9 µM) | –
